Experimental data: patent US11661433B2, “Near-IR activatable fluorescent small molecules with dual modes of cytotoxicity” (VIRGINIA COMMONWEALTH UNIVERSITY, priority 2018, dated 2023)
Like-named read-outs stand apart in the source and are kept apart here.

Legend:
[1] = test system: ctDNA; experiment: DNA bound Pt content by ICP-MS; format: biochemical; conditions: extended incubation with ctDNA in the dark
Procedure: DNA bound Pt content: A 1×-PBS solution containing ctDNA (500 μM) and 1 (50 μM in 0.1% DMSO-PBS) was irradiated with near-IR light (720-740 nm) for 15, 30 and 60 mins. Another identical set was incubated in dark for comparison. After treatment, the DNA was precipitated from the solutions using 10 mL of cooled ethanol, vortexed, and collected by centrifugation. The precipitate was washed twice with cooled ethanol (5 mL) to remove soluble platinum complexes. The white fibrous precipitate was dissolved using 200 μl of conc. HNO3 for 12 h and diluted with distilled water to 2% HNO3-water solutions. Platinum content was measured by ICP-MS instrument. Untreated samples (DNA alone, complex alone) were kept for control. Platinum standards were made by dissolving K2PtCl4 in 98% aq. HNO3 and used for calibration. The data along with the deviation is reported based on experiments performed in duplicate.

[2] = test system: MCF-7 (human breast cancer); experiment: MTT assay, MCF-7 cells; format: cell-based
Procedure: (§1) MTT assay: Cytotoxic profiles of the compounds were assessed in the following cell lines (passage number not exceeding 15): MCF-7 (human breast cancer) C-33 A (human cervical carcinoma) and HEK293T (transformed human kidney). Around 6000 cells were seeded in 96 well transparent flat-bottom tissue-culture plate in 200 μl of Dulbecco's Modified Eagle Medium (DMEM) containing 10% FBS (Fetal Bovine Serum) and were incubated for 24 h at 37° C. and 5% CO2. We performed an initial control experiment with vehicle alone (0.1% DMSO-DMEM) on cells with different dosages of near-IR light and compared it to unexposed counterparts. […] One such plate was exposed to near-IR light for 45 min in phenol-red free DMEM (200 μl) and room temperature was maintained using a cooling system. Another identical plate was kept in dark. The plates were incubated for another 24 h in dark. Finally, MTT [3-(4,5-dimethylthiazole-2-yl)-2,5-diphenyltetrazolium bromide] (25 μl of 5 mg/ml solution in PBS) was added and incubated for 3-4 h. The absorbance of the precipitated formazan was recorded at 550 nm in DMSO. Cells treated with 0.1% DMSO-DMEM was kept as controls which represented 100% viability. The half-growth inhibitory concentration (IC50) values were calculated by nonlinear regression analysis using GraphPad Prism5. The data is represented from two independent set of experiments, each of which was performed in triplicate.

[3] = test system: human cancer cell lines; experiment: MTT cytotoxicity in a panel of human cancer cell lines; format: cell-based; conditions: dark, similar conditions
Procedure: MTT assay: Cytotoxic profiles of the compounds were assessed in the following cell lines (passage number not exceeding 15): MCF-7 (human breast cancer) C-33 A (human cervical carcinoma) and HEK293T (transformed human kidney). Around 6000 cells were seeded in 96 well transparent flat-bottom tissue-culture plate in 200 μl of Dulbecco's Modified Eagle Medium (DMEM) containing 10% FBS (Fetal Bovine Serum) and were incubated for 24 h at 37° C. and 5% CO2. We performed an initial control experiment with vehicle alone (0.1% DMSO-DMEM) on cells with different dosages of near-IR light and compared it to unexposed counterparts. The cells were unharmed by light and vehicle alone up to 45 min of photoirradiation. Cells were treated with various concentrations of 1, 2, IR797-acac, cisplatin and an equimolar mixture of IR797-acac and cisplatin in 0.1% DMSO-DMEM for 4 h or 48 h in the dark. One such plate was exposed to near-IR light for 45 min in phenol-red free DMEM (200 μl) and room temperature was maintained using a cooling system. Another identical plate was kept in dark. The plates were incubated for another 24 h in dark. Finally, MTT [3-(4,5-dimethylthiazole-2-yl)-2,5-diphenyltetrazolium bromide] […] The absorbance of the precipitated formazan was recorded at 550 nm in DMSO. […] The half-growth inhibitory concentration (IC50) values were calculated by nonlinear regression analysis using GraphPad Prism5. […]

[4] = Solubility in solvents; format: physicochemical
Procedure: Synthesis of IR797-acac: IR797 chloride (250 mg, 0.49 mmol), acetylacetone (245 μl, 2.45 mmol) and N,N-diisopropylethylamine (90 μl, 0.49 mmol) were dissolved in acetonitrile (10 mL) in a sealed vial. The dark green colored solution was heated at 70° C. on a microwave apparatus (Discover, CEM, 60 W) for 15 mins. The progress of the reaction was monitored via TLC and stopped only after full consumption of the starting dye. The reaction mixture was allowed to cool down to room temperature and dichloromethane (50 mL) was added. The organic layer was washed using saturated sodium bicarbonate solution (2×10 ml), dried over anhydrous sodium sulfate, filtered, and evaporated using a rotavac. The crude material was subjected to column chromatography using ethyl acetate (100%) and dichloromethane-methanol eluents (0-10%) to yield pure product, IR797-acac (150 mg, 50% yield). ^1H NMR (400 MHz, CDCl3): δ (ppm)=7.43-7.36 (m, 4H), 7.31 (d, J=7.4 Hz, 2H), 7.21 (t, J1=J2=7.2 Hz, 2H), 7.11 (d, J=8.0 Hz, 2H), 6.20 (d, J=14 Hz, 2H), 3.74 (s, 6H), 3.15 (s, 4H), 2.00 (s, 6H), 1.58 (s, 12H). ^13C NMR (100 MHz, CDCl3): δ (ppm)=191.42, 170.78, 144.66, 142.96, 140.71, 137.40, 128.80, 124.99, 122.04, 110.04, 103.39, 48.82, 32.53, 28.42, 23.60. ESI-MS in MeCN: m/z (expected)=533.33, m/z (observed)=533.32 [M-Cl]^+ (100%). […]

[5] = Photodecomposition and dark stability (absorbance, LC-MS); format: physicochemical; conditions: buffer, pH 7.4
Procedure: High performance liquid chromatography: For verifying purity, samples (25 μl in 2.5% DMSO-H2O) were loaded on an analytical C18 column and gradient was maintained at 10-100 percent of MeCN—H2O from 10-50 min. The absorbance was measured at different wavelengths within the range of 200-800 nm. For photolysis experiments, solution of 1 (30 μl of 100 nM in 0.01% of DMSO-PBS, irradiated for 1 min) was injected on the column and eluted using the same gradient as above.
Liquid-chromatography mass spectral experiments: Solutions of 1 and IR797-acac (100 nM in 0.01% DMSO-PBS) were used to carry out LC-MS studies. Samples were injected on a self-packed fused silica (polymicro technologies) trap column (360 micron o.d.×100 micron i.d.) with a Kasil frit packed with 5-15 micron irregular phenyl C-18 YMC packing. The trap column is connected to an analytical column (360 micron×50 micron) with a fritted tip at 5 micron or less (New Objective) packed with 5 μm phenyl C-18 YMC packing. Compounds were initially trapped and then eluted into a Thermo Finnigan LCQ deca XP max mass spectrometer (Thermo Scientific) with an acetonitrile gradient from 0% to 80% over 5 minutes at a flow rate of between 50-150 nl/min. […]

[6] = test system: ctDNA; experiment: DNA melting experiments and Hoechst displacement assays; format: binding; conditions: in the dark
Procedure: DNA thermal denaturation experiments: The DNA thermal denaturation experiments were performed by monitoring the absorption intensity of ct-DNA (200 μM) at 260 nm at increasing temperatures (from 40 to 90° C.), both in the absence and presence of complex 1 and IR797-acac (20 μM in 1% DMSO-DPBS solutions, pH=7.2). The experiments were performed using Agilent UV-visible spectrophotometer connected to a Peltier thermostat for temperature control. Data was recorded with increasing the temperature of the solution by 1.0° C. per min. The derivative of the melting plots gave the DNA melting temperature (Tm) of the ct-DNA. Ethidium bromide (20 μM) as a standard intercalator was used for comparison.

[7] = test system: C-33 A (human cervical carcinoma); experiment: MTT assay, C-33 A cells; format: cell-based
Procedure: as §1

CC1=CC(C)=[O+][Pt-2]([NH3+])([NH3+])[O]1.O=[N+]([O-])[O-] (centres unmarked) [Complex 2, [Pt(NH3)2(acac)](NO3)], reference compound]
incorporation of Pt into DNA in the dark [1]: slow incorporation

CC(=O)C(=C(C)O)C1=C(C=CC2=[N+](C)c3ccccc3C2(C)C)CCC1=CC=C1N(C)c2ccccc2C1(C)C.[Cl-] [IR797-acac]
IC50 ([2]; 4 h in dark, then light 45 mins, 720-740 nm, 3.5 ± 1.5 mW·cm^−2, read-out: IC50 MCF-7 Light): 4.7 ± 0.8 µM | IC50 ([2]; 4 h in the dark, read-out: IC50 MCF-7 Dark): 5.9 ± 0.3 µM | toxicity in unexposed cells [3]: toxic on its own | solubility [4]: readily soluble in polar solvents | half-life of photodecomposition t1/2^L [5]: ~40 s | stability in dark t1/2^D [5]: ~10 h | DNA interaction mode [6]: interact with the minor groove of ctDNA | IC50 ([7]; 4 h in dark, then light 45 mins, 720-740 nm, 3.5 ± 1.5 mW·cm^−2, read-out: IC50 C-33 A Light): 0.3 ± 0.07 µM | IC50 ([7]; 4 h in the dark, read-out: IC50 C-33 A Dark): 1.2 ± 0.1 µM

N.N.[Cl][Pt][Cl] [CP, cisplatin, reference compound]
IC50 ([2]; cisplatin incubated 48 h in the dark, light 45 mins, 720-740 nm, read-out: IC50 MCF-7 Light): 22.5 ± 3.2 µM | IC50 ([2]; cisplatin incubated 48 h in the dark, read-out: IC50 MCF-7 Dark): 25 ± 2.2 µM | IC50 ([7]; cisplatin incubated 48 h in the dark, light 45 mins, 720-740 nm, read-out: IC50 C-33 A Light): 16.1 ± 1.5 µM | IC50 ([7]; cisplatin incubated 48 h in the dark, read-out: IC50 C-33 A Dark): 17.7 ± 1.5 µM
